The text below walks through data of patent US12187709B2 (Genentech, Inc., priority 2021, dated 2025).

In one test the target is c-Cbl (Homo sapiens (Human), UniProt P22681). Briefly: C-Cbl LCK Ub TR-FRET assay (C-cbl Lck HTRF). It is filed as biochemical. In outline:
(§1)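 Signal is read once the detection mix has stood 20 min at ambient temperature. Curves are anchored by DMSO as maximum and by omission of LCK as minimum.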

The target of a further test is Cbl-b (Homo sapiens (Human), UniProt Q13191). Briefly: Cbl-b LCK Ub TR-FRET assay (Cbl-b Lck HTRF). The following applies: for IC50: Cbl-b LCK Ub TR-FRET; for fold-selectivity (Cbl-b over C-cbl): ratio C-cbl Lck HTRF IC50 / Cbl-b Lck HTRF IC50. It is filed as biochemical. In outline:
as §1

Test [1] has as its target Human Cbl-b (residues 40-426) (Homo sapiens (Human), UniProt Q13191). Briefly: Cbl-b SPR assay. It is filed as binding. The following applies: for Fold of selectivity: C-cbl SPR Kd vs Cbl-b SPR Kd; for Kd: SPR, 20° C. An outline of the steps:
(§2)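 Captured protein (1300-1500 RU for both isoforms) was probed in multi-cycle kinetics with 6 concentrations in 2-fold dilution, 60 s contact, 40 μl/min, dissociation 120-1200 s, double-referenced. Kinetic and affinity parameters came from a 1:1 binding fit. For slow off-rates, kd was set independently by a chaser-based method.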

The target of the next test is c-Cbl (residues 47-435) (Homo sapiens (Human), UniProt P22681). Briefly: c-Cbl SPR assay. It is filed as binding. The following applies: 20° C. In outline:
as §2

c-Cbl (residues 47-435), sequence (P22681 47-435): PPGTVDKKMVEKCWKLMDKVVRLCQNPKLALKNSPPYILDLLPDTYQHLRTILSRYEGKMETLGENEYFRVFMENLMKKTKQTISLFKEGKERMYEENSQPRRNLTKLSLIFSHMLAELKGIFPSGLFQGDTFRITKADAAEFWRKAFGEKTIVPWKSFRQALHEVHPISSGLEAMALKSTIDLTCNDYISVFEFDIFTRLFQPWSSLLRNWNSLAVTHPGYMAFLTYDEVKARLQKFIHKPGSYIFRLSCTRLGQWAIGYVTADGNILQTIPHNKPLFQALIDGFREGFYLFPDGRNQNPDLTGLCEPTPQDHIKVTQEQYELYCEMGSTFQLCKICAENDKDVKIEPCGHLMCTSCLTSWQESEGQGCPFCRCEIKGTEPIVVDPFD
c-Cbl, sequence (P22681 47-435): as above
Cbl-b, sequence (Q13191 40-426): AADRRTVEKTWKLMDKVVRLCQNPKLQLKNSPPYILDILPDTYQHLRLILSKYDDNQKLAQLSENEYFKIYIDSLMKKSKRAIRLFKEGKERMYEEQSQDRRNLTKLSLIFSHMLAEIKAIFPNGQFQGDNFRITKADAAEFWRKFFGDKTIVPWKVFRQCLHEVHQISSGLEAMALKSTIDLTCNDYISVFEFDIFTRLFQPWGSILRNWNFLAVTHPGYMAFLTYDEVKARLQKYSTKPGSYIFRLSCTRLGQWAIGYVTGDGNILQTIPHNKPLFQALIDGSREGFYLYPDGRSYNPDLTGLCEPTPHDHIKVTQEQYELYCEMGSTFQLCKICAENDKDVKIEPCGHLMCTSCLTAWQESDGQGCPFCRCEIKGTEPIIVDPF
Human Cbl-b (residues 40-426), sequence (Q13191 40-426): as above

`Cn1cnnc1[C@H](CC1CCCC1)c1cccc(N2Cc3c(cc(CNC4(C)CCC4)cc3C(F)(F)F)C2=O)c1` [Compound 249, (R)-2-(3-(2-cyclopentyl-1-(4-methyl-4H-1,2,4-triazol-3-yl)ethyl)phenyl)-6-(((1-methylcyclobutyl)amino)methyl)-4-(trifluoromethyl)isoindolin-1-one]: half-maximal inhibition against c-Cbl (IC50) required 500 nM. Further, at Cbl-b, the IC50 was 100 nM and the “fold-selectivity (Cbl-b over C-cbl)” value is on record as 5.0x. Moreover, in test [1], the Fold of selectivity was determined as 6.9× and the Kd was 49 nM. The compound further displayed a Kd on c-Cbl (residues 47-435) of 300 nM.

For `Cn1cnnc1[C@@H](c1cccc(N2Cc3c(cc(CNC4(C)CCC4)cc3C(F)(F)F)C2=O)c1)C1CCCC1` [Compound 256, (R)-2-(3-(cyclopentyl(4-methyl-4H-1,2,4-triazol-3-yl)methyl)phenyl)-6-(((1-methylcyclobutyl)amino)methyl)-4-(trifluoromethyl)isoindolin-1-one], at c-Cbl, the IC50 amounted to 1400 nM. At Cbl-b, the IC50 was 210 nM and the “fold-selectivity (Cbl-b over C-cbl)” value is given as 6.5x. In test [1], this compound registered a Fold of selectivity of 14× and a Kd of 180 nM. On c-Cbl (residues 47-435), this compound displayed a Kd of 2500 nM.

Take `Cn1cnnc1[C@H](c1cccc(N2Cc3c(cc(CNC4(C)CCC4)cc3C(F)(F)F)C2=O)c1)C1CCCC1` [Compound 257, (S)-2-(3-(cyclopentyl(4-methyl-4H-1,2,4-triazol-3-yl)methyl)phenyl)-6-(((1-methylcyclobutyl)amino)methyl)-4-(trifluoromethyl)isoindolin-1-one]: the IC50 at c-Cbl is 27 nM; at Cbl-b it was 22 nM. Besides, the “fold-selectivity (Cbl-b over C-cbl)” value on Cbl-b was found to be 1.2x. The compound also showed a Fold of selectivity in test [1] of 5.7×. Moreover, the Kd in test [1] stood at 0.65 nM; on c-Cbl (residues 47-435), 3.7 nM.

With `Cn1cnnc1[C@@H](c1cccc(N2Cc3c(cc(CNC4(C)CCC4)cc3C(F)(F)F)C2=O)c1)C1CCC1` [Compound 258, (R)-2-(3-(cyclobutyl(4-methyl-4H-1,2,4-triazol-3-yl)methyl)phenyl)-6-(((1-methylcyclobutyl)amino)methyl)-4-(trifluoromethyl)isoindolin-1-one], the IC50 turned out to be 970 nM against c-Cbl and 170 nM against Cbl-b. The “fold-selectivity (Cbl-b over C-cbl)” value on Cbl-b worked out at 5.8x. In test [1], the Fold of selectivity came to 13×. In addition, the Kd in test [1] was found to be 170 nM; on c-Cbl (residues 47-435) it was 2200 nM.

Take `Cn1cnnc1[C@@H](c1cccc(N2Cc3c(cc(CNC4(C)CCC4)cc3C(F)(F)F)C2=O)c1)C1CC(OCC(F)F)C1` (stereo partly drawn) [Compound 260, 2-(3-((R)-((1r,3R)-3-(2,2-difluoroethoxy)cyclobutyl)(4-methyl-4H-1,2,4-triazol-3-yl)methyl)phenyl)-6-(((1-methylcyclobutyl)amino)methyl)-4-(trifluoromethyl)isoindolin-1-one]: it took 2400 nM to reach half-maximal inhibition at c-Cbl (IC50). For the same compound, on Cbl-b, the IC50 is 450 nM and the “fold-selectivity (Cbl-b over C-cbl)” value stood at 5.4x. In test [1], this compound yielded a Fold of selectivity of 8.8× and a Kd of 590 nM. Further, the Kd on c-Cbl (residues 47-435) came out at 2200 nM.

For `Cn1cnnc1[C@@H](c1cccc(N2Cc3c(Cl)cc(CNC4(C)CCC4)cc3C2=O)c1)C1COC1` [Compound 270, (R)-4-chloro-2-(3-((4-methyl-4H-1,2,4-triazol-3-yl)(oxetan-3-yl)methyl)phenyl)-6-(((1-methylcyclobutyl)amino)methyl)-isoindolin-1-one], the IC50 on c-Cbl came to 27 nM. For the same compound, on Cbl-b, it took 11 nM to reach half-maximal inhibition (IC50) and the “fold-selectivity (Cbl-b over C-cbl)” value worked out at 2.3x. In test [1], this compound came in with a Fold of selectivity of 5.9× and a Kd of 2.6 nM. Moreover, the affinity on c-Cbl (residues 47-435), expressed as Kd, was 16 nM.

On c-Cbl, `Cn1cnnc1[C@]1(c2cccc(N3Cc4c(cc(CNC5(C)CCC5)cc4C(F)F)C3=O)c2)C[C@@H](F)C1` [Compound 272, 4-(difluoromethyl)-2-(3-((1r,3r)-3-fluoro-1-(4-methyl-4H-1,2,4-triazol-3-yl)cyclobutyl)phenyl)-6-(((1-methylcyclobutyl)amino)methyl)isoindolin-1-one] came in with an IC50 of 25 nM. At Cbl-b, half-maximal inhibition (IC50) required 15 nM and the “fold-selectivity (Cbl-b over C-cbl)” value worked out at 1.7x. In test [1], the Fold of selectivity is listed as 7.6× and the Kd is 1.4 nM. For the same compound, the Kd on c-Cbl (residues 47-435) was 11 nM.

Take `CCNc1cc([C@]2(c3nncn3C)C[C@@H](C)C2)cc(N2Cc3c(cc(CNC4(C)CCC4)cc3C(F)F)C2=O)n1` [Compound 274, 4-(difluoromethyl)-2-(6-(ethylamino)-4-((1s,3s)-3-methyl-1-(4-methyl-4H-1,2,4-triazol-3-yl)cyclobutyl)pyridin-2-yl)-6-(((1-methylcyclobutyl)amino)methyl)isoindolin-1-one]: the IC50 against c-Cbl was 6.9 nM; against Cbl-b, 7.5 nM. Moreover, the “fold-selectivity (Cbl-b over C-cbl)” value at Cbl-b stood at 0.91x. This compound came in with a Fold of selectivity in test [1] of 2.0×. For the same compound, the Kd is 0.1 nM in test [1] and 0.2 nM at c-Cbl (residues 47-435).

Turning to `Cn1cnnc1[C@@H](C[C@H]1CCOC1)c1cccc(N2Cc3c(cc(CNC4(C)CCC4)cc3C(F)(F)F)C2=O)c1` [Compound 277, 2-(3-((S)-1-(4-methyl-4H-1,2,4-triazol-3-yl)-2-((S)-tetrahydrofuran-3-yl)ethyl)phenyl)-6-(((1-methylcyclobutyl)amino)methyl)-4-(trifluoromethyl)isoindolin-1-one], at c-Cbl, half-maximal inhibition (IC50) required 8600 nM. Besides, at Cbl-b, the IC50 is 3600 nM and the “fold-selectivity (Cbl-b over C-cbl)” value is on record as 2.3x. In test [1], this compound registered a Fold of selectivity of 5.3× and a Kd of 1400 nM. Further, the Kd on c-Cbl (residues 47-435) was found to be 7700 nM.

As for `Cn1cnnc1[C@H](C[C@H]1CCOC1)c1cccc(N2Cc3c(cc(CNC4(C)CCC4)cc3C(F)(F)F)C2=O)c1` [Compound 278, 2-(3-((R)-1-(4-methyl-4H-1,2,4-triazol-3-yl)-2-((S)-tetrahydrofuran-3-yl)ethyl)phenyl)-6-(((1-methylcyclobutyl)amino)methyl)-4-(trifluoromethyl)isoindolin-1-one], the IC50 against c-Cbl was found to be 8900 nM; against Cbl-b, 5000 nM. In addition, the “fold-selectivity (Cbl-b over C-cbl)” value on Cbl-b was 1.8x. This compound also came in with a Fold of selectivity in test [1] of 4.8×. In addition, the Kd in test [1] is 1800 nM; at c-Cbl (residues 47-435) it was 8600 nM.

In turn, `Cn1cnnc1C1(c2cccc(N3Cc4c(cc(CNC5(C)CCC5)cc4C(F)(F)F)C3=O)c2)CCC1` [Compound 279, 2-(3-(1-(4-methyl-4H-1,2,4-triazol-3-yl)cyclobutyl)phenyl)-6-(((1-methylcyclobutyl)amino)methyl)-4-(trifluoromethyl)isoindolin-1-one] came in with an IC50 on c-Cbl of 9.3 nM. On Cbl-b, the IC50 was 6.6 nM and the “fold-selectivity (Cbl-b over C-cbl)” value amounted to 1.4x. Besides, in test [1], the Fold of selectivity is reported as 6.4× and the Kd was determined as 1.8 nM. For the same compound, on c-Cbl (residues 47-435), binding was characterised by a dissociation constant (Kd) of 12 nM.

At c-Cbl, `Cn1cnnc1[C@]1(c2cccc(N3Cc4c(cc(CNC5(C)CCC5)cc4C(F)(F)F)C3=O)c2)C[C@H](OCC#N)C1` [Compound 280, 2-((1s,3s)-3-(4-methyl-4H-1,2,4-triazol-3-yl)-3-(3-(6-(((1-methylcyclobutyl)amino)methyl)-1-oxo-4-(trifluoromethyl)isoindolin-2-yl)phenyl)cyclobutoxy)acetonitrile] returned an IC50 of 11 nM. On Cbl-b, the IC50 stood at 6.8 nM and the “fold-selectivity (Cbl-b over C-cbl)” value is recorded as 1.6x. Further, in test [1], the Fold of selectivity was found to be 7.0× and binding was characterised by a dissociation constant (Kd) of 1.1 nM. For the same compound, the Kd at c-Cbl (residues 47-435) worked out at 7.2 nM.

`Cn1cnnc1[C@]1(c2cccc(N3Cc4c(cc(CNC5(C)CCC5)cc4C(F)(F)F)C3=O)c2)C[C@@H](OCC#N)C1` [Compound 281, 2-((1r,3r)-3-(4-methyl-4H-1,2,4-triazol-3-yl)-3-(3-(6-(((1-methylcyclobutyl)amino)methyl)-1-oxo-4-(trifluoromethyl)isoindolin-2-yl)phenyl)cyclobutoxy)acetontrile]: on c-Cbl, the IC50 is 9.5 nM. At Cbl-b, the IC50 was determined as 6.7 nM and the “fold-selectivity (Cbl-b over C-cbl)” value was determined as 1.3x. In test [1], this compound came in with a Fold of selectivity of 6.3× and a Kd of 1.1 nM. The Kd at c-Cbl (residues 47-435) came out at 7 nM.

Turning to `Cn1cnnc1C1(c2cccc(N3Cc4c(cc(CNC5(C)CCC5)cc4C(F)(F)F)C3=O)c2)CCOCC1` [Compound 282, 2-(3-(4-(4-methyl-4H-1,2,4-triazol-3-yl)tetrahydro-2H-pyran-4-yl)phenyl)-6-(((1-methylcyclobutyl)amino)methyl)-4-(trifluoromethyl)isoindolin-1-one], at c-Cbl, the IC50 is 2800 nM. Besides, on Cbl-b, 410 nM corresponded to half-maximal inhibition (IC50) and the “fold-selectivity (Cbl-b over C-cbl)” value is on record as 6.5x. In test [1], this compound returned a Fold of selectivity of 10× and a Kd of 230 nM. The Kd on c-Cbl (residues 47-435) is 2300 nM.

Consider `Cn1cnnc1C1(c2cccc(N3Cc4c(cc(CNC5(C)CCC5)cc4C(F)(F)F)C3=O)c2)CC1` [Compound 283, 2-(3-(1-(4-methyl-4H-1,2,4-triazol-3-yl)cyclopropyl)phenyl)-6-(((1-methylcyclobutyl)amino)methyl)-4-(trifluoromethyl)isoindolin-1-one], for which the IC50 at c-Cbl worked out at 220 nM. On Cbl-b, it took 81 nM to reach half-maximal inhibition (IC50) and the “fold-selectivity (Cbl-b over C-cbl)” value came out at 2.7x. Also, in test [1], the Fold of selectivity is given as 5.3× and the affinity, expressed as Kd, was 43 nM. The Kd on c-Cbl (residues 47-435) is 220 nM.
